Measurements as given in patent US5200407A, “Azole derivatives and anti-ulcerative composition containing same” (Meiji Seika Kaburhiki Kaisha, priority 1989, dated 1993).

Test system: not listed separately
Test: Toxicity (LD50)
Details: mouse, in vivo; mice, oral
From the text: The compounds of the present invention are of low toxicity, as appreciated from Example Compound Nos. 79, 104 and 133 having up to 1 g/kg of LD50 value (mice, by an oral).

`CCOC(=O)C[S+]([O-])c1nc2ncccc2s1` (stereo not shown) [Example 104, 2-[(ethoxycarbonylmethyl)sulfinyl]thiazolo[4,5-b]pyridine] and `CCCCOC(=O)C[S+]([O-])c1nc2cccnc2s1` (stereo not shown) [Example 79, 2-[(n-butoxycarbonylmethyl)sulfinyl]thiazolo[5,4-b]pyridine] cannot be ordered by LD50: at least 1000 mg/kg for the first, at least 1000 mg/kg for the second.

In the case of `CC1(C)CCCC(C)(C)N1CC[S+]([O-])c1nc2ncc(C(F)(F)F)cc2s1` (stereo not shown) [Example 133], the LD50 is reported as at least 1000 mg/kg.

Test system: ulceration
Test: Water-immersion, restraint stress ulcerogenic testing
Type: in vivo, Wister male rats
Details: Rattus norvegicus, Table 1, suspended in 0.5% CMC, one hour prior to stressing, water immersion restraint six hours, rats
Protocol: 1. Water-immersion, restraint stress ulcerogenic testing
Wister male rats (11-week age) fasted for 18 hours were placed in a restraint cage, which was in turn immersed to a depth of the pectoral region in water at 20° to 22° C. to leave the rats under stress for six hours. Then, the rats were drawn up from the water and put down by vertebral dislocation. Afterwards, the stomach was removed, infused with 50 ml of a 5% aqueous solution of formalin and was wholly immersed in the same solution for 30 minutes for fixation. The fixed sample was dissected along the curvatura ventriculi major, and the ulcerated regions were measured along their major length (in mm) by means of slide calipers. The total sum of the measurements per rat is a value of ulceration. The compounds under test, suspended in 0.5% carboxymethylcellulose (CMC), were administered to the rats at a single dose of 5 ml/kg body weight (corresponding to 30 mg/kg body weight of the compound) one hour prior to the stressing. To a control group, only 0.5% CMC was administrated at a dose of 5 ml/kg weight. The rate of depression of ulceration was calculated according to the following equation: [formula]

Compared with `CCOCC[S+]([O-])c1nc2cccnc2[nH]1` (stereo not shown) [Example 124], `CCOCC[S+]([O-])c1nc2cccnc2s1` (stereo not shown) [Example 121] is higher in inhibition in vivo at 30 mg/kg: 25% for the first, 67% for the second.

First: [O-][S+](CCN1CCOCC1)c1nc2cccnc2s1 (stereo not shown) [Example 138]
Second: [O-][S+](CCN1CCOCC1)c1nc2cnccc2s1 (stereo not shown) [Example 140]
The inhibition in vivo at 30 mg/kg of the first is higher: 68% for the first, 58% for the second.

Compared with `CCN(CC)CC[S+]([O-])c1nc2cccnc2s1` (stereo not shown) [Example 141], `CC(C)N(CC[S+]([O-])c1nc2cccnc2s1)C(C)C` (stereo not shown) [Example 149, 2-[(2-di-isopropylaminoethvl)sulfinyl]thiazolo[5,4-b]pyridine] is higher in inhibition in vivo at 30 mg/kg: 41% for the first, 99% for the second.

Going from `Cn1nnnc1CCCC[S+]([O-])c1nc2cccnc2s1` (stereo not shown) [Example 100, 2-[(4-(1-methyltetrazol-5-y1)butyl)sulfinyl]thiazolo[5,4-b]pyridine] to `Cn1nnnc1C[S+]([O-])c1nc2cccnc2s1` (stereo not shown) [Example 120, 2-[((1-methyltetrazol-5-yl)methyl)sulfinyl]thiazolo[5,4-b]pyridine], the inhibition in vivo at 30 mg/kg falls from 95% to 86%.

Compared with `CC(C)COC(=O)C[S+]([O-])c1nc2cccnc2s1` (stereo not shown) [Example 101, 2-[(isobutoxycarbonylmethyl)sulfinyl]thiazolo[5,4-b]pyridine], `CCOC(=O)C[S+]([O-])c1nc2cccnc2s1` (stereo not shown) [Example 128, 2-[(ethoxycarbonylmethyl)sulfinyl]thiazolo[5,4-b]pyridine] is higher in inhibition in vivo at 30 mg/kg: 75% for the first, 91% for the second.

First: CC1(C)CCCC(C)(C)N1CC[S+]([O-])c1nc2cccnc2s1 (stereo not shown) [Example 129, 2-[{2-(2,2,6,6-tetramethylpiperidin-1-yl)ethyl)sulfinyl]thiazolo[5,4-b]pyridine]
Second: CC1(C)CCCC(C)(C)N1CC[S+]([O-])c1nc2ncc(C(F)(F)F)cc2s1 (stereo not shown) [Example 133]
The inhibition in vivo at 30 mg/kg of the first is higher: 99% for the first, 98% for the second.

First: CCOCC[S+]([O-])c1nc2cnccc2s1 (stereo not shown) [Example 123, 2-[(2-ethoxymethyl)sulfinyl]thiazolo[4,5-c]pyridine]
Second: CCOCC[S+]([O-])c1nc2cc(Cl)cnc2s1 (stereo not shown) [Example 122]
The inhibition in vivo at 30 mg/kg of the first is higher: 15% for the first, 13% for the second.

Compared with `CC(C)N(CCSc1nc2ncccc2o1)C(C)C` [Example 51, 2-[(2-di-isopropylaminoethyl)thio]oxazolo[4,5-b]pyridine], `CC(C)N(CC[S+]([O-])c1nc2ncccc2s1)C(C)C` (stereo not shown) [Example 136] is higher in inhibition in vivo at 30 mg/kg: 88% for the first, 94% for the second.

Compared with `CC(C)N(CC[S+]([O-])c1nc2cnccc2s1)C(C)C` (stereo not shown) [Example 130], `CC(C)N(CC[S+]([O-])c1nc2ncc(C(F)(F)F)cc2s1)C(C)C` (stereo not shown) [Example 131] is lower in inhibition in vivo at 30 mg/kg: 76% for the first, 71% for the second.

Going from `CCOC(=O)C[S+]([O-])c1nc2ncccc2s1` (stereo not shown) [Example 104, 2-[(ethoxycarbonylmethyl)sulfinyl]thiazolo[4,5-b]pyridine] to `CCCCOC(=O)C[S+]([O-])c1nc2cccnc2s1` (stereo not shown) [Example 79, 2-[(n-butoxycarbonylmethyl)sulfinyl]thiazolo[5,4-b]pyridine], the inhibition in vivo at 30 mg/kg rises from 68% to 76%.

Compared with `CN1CCC([S+]([O-])c2nc3cccnc3s2)CC1` (stereo not shown) [Example 148, 2-[(1-methylpiperidin-4-yl)sulfinyl]thiazolo[5,4-b]pyridine], `CN1CCCC(C[S+]([O-])c2nc3cccnc3s2)C1` (stereo not shown) [Example 147, 2-[(1-methylpiperidin-3-yl)methylsulfinyl]thiazolo[5,4-b]pyridine] is lower in inhibition in vivo at 30 mg/kg: 78% for the first, 64% for the second.

Compared with `C/C=C/COC(=O)C[S+]([O-])c1nc2cccnc2s1` (stereo not shown) [Example 84, 2-[(crotyloxycarbonylmethyl)sulfinyl]thiazolo[5,4-b]pyridine], `C=CCOC(=O)C[S+]([O-])c1nc2cccnc2s1` (stereo not shown) [Example 89, 2-[(allyloxvcarbonylmethyl)sulfinyl]thiazolo[5,4-b]pyridine] is lower in inhibition in vivo at 30 mg/kg: 75% for the first, 72% for the second.

Going from `[O-][S+](CCN1CCOCC1)c1nc2ncccc2[nH]1` (stereo not shown) [Example 143, 2-[(2-morpholinoethyl)sulfinyl]imidazo[4,5-b]pyridine] to `[O-][S+](CCN1CCOCC1)c1nc2cc(Cl)cnc2s1` (stereo not shown) [Example 142], the inhibition in vivo at 30 mg/kg falls from 54% to 13%.

First: O=C(C[S+]([O-])c1nc2cccnc2s1)NC1CCCCC1 (stereo not shown) [Example 117, 2-[(N-cyclohexylcarbamoylmethyl)sulfinyl]thiazolo[5,4-b]pyridine]
Second: NC(=O)C[S+]([O-])c1nc2cccnc2s1 (stereo not shown) [Example 135, 2-[(carbamoylmethyl)sulfinyl]thiazolo[5,4-b]pyridine]
The inhibition in vivo at 30 mg/kg of the first is lower: 77% for the first, 86% for the second.

First: CC(C)N(CCS(=O)(=O)c1nc2cccnc2s1)C(C)C [Example 150, 2-[(2-di-isooropylaminoethyl)sulfonyl]thiazolo[5,4-b]pyridine]
Second: CN1CCCC1CCS(=O)(=O)c1nc2cccnc2s1 (stereo not shown) [Example 145, 2-[(2-(1-methylpyrrolidin-2-yl)ethyl)sulfonyl]thiazolo[5,4-b]pyridine]
The inhibition in vivo at 30 mg/kg of the first is lower: 61% for the first, 68% for the second.

Going from `CN1CCCC1CCSc1nc2cccnc2s1` (stereo not shown) [Example 70, 2-[(2-(1-methylpyrrolidin-2-yl)ethyl)thio]thiazolo[5,4-b]pyridine] to `CN1CCCC1CC[S+]([O-])c1nc2cccnc2s1` (stereo not shown) [Example 144, 2-[(2-(1-methylpyrrolidin-2-y1)ethyl)sulfinyl]thiazolo[5,4-b]pyridine], the inhibition in vivo at 30 mg/kg rises from 42% to 85%.

First: [O-][S+](CCc1ccccn1)c1nc2cccnc2s1 (stereo not shown) [Example 125, 2-[2(pyridin-2-yl)-ethylsulfinyl]thiazolo[4,5-]pyridine]
Second: CC(=O)OCC[S+]([O-])c1nc2cccnc2s1 (stereo not shown) [Example 110, 2-[(2-acetoxyethyl)sulfinyl]thiazolo[5,4-b]pyridine]
The inhibition in vivo at 30 mg/kg of the first is lower: 44% for the first, 79% for the second.

Going from `C[S+]([O-])c1nc2cccnc2s1` (stereo not shown) [Example 103, 2-methylsulfinylthiazolo[5,4-b]pyridine] to `CC(C)=CC[S+]([O-])c1nc2cccnc2s1` (stereo not shown) [Example 127, 2-[(3-methyl-2-butenyl)sulfinyl]thiazolo[5,4-b]pyridine], the inhibition in vivo at 30 mg/kg falls from 84% to 0%.

`CC1(C)CCCC(C)(C)N1CCSc1nc2ncccc2o1` [Example 47, 2-[(2-(2,2,6,6-tetramethylpiperidin-1-yl)ethyl)thio]oxazolo[4,5-b]pyridine] and `CC1(C)CCCC(C)(C)N1CCSc1nc2cccnc2o1` [Example 48, 2-[(2-(2,2,6,6-tetramethylpiperidin-1-yl)ethyl)thio]oxazolo[5,4-b]pyridine] are the same in inhibition in vivo at 30 mg/kg: 99% for the first, 99% for the second.

Compared with `O=S(=O)(CCN1CCOCC1)c1nc2cccnc2s1` [Example 139], `c1cnc2sc(SCCN3CCOCC3)nc2c1` [Example 65, 2-[(2-morpholinoethyl)thio]thiazolo[5,4-b]pyridine] is higher in inhibition in vivo at 30 mg/kg: 47% for the first, 58% for the second.

Going from `CN1CCN(CCC[S+]([O-])c2nc3cccnc3s2)CC1` (stereo not shown) [Example 151, 2-[(3-(1-methylpiperazin-4-yl)propyl)sulfinyl]thiazolo[5,4-b]pyridine] to `COC(=O)C[S+]([O-])c1nc2cccnc2s1` (stereo not shown) [Example 93, 2-[(methoxycarbonylmethyl)sulfinyl]thiazolo[5,4-b]pyridine], the inhibition in vivo at 30 mg/kg rises from 39% to 73%.

Molecule `O=C1NCC(C[S+]([O-])c2nc3cccnc3s2)O1` (stereo not shown) [Example 126, 2-[(2-oxazolidion-5-yl)methylsulfinyl]thiazolo[5,4-b]pyridine] has an inhibition in vivo at 30 mg/kg of 60%.

Same assay, conditions: Table 1; 30 mg/kg, suspended in 0.5% CMC, one hour prior to stressing; water immersion restraint six hours; rats

With “2-[(2-ureidoethyl)sulfinyl]thiazolo[5,4-b]pyridine [Example 146]” the “% Ulceration Inhibition” value was 19%.

Test system: ulceration
Test: Ethanol-induced ulceration
Type: in vivo, Donryu masculine rats
Details: 30 mg/kg oral, in 0.5% CMC, one hour prior to 100% ethanol; control nearly 100% erosion; rats
Protocol: 2. Ethanol-induced ulceration
Five (5) ml/kg of 100% ethanol was orally administrated to Donryu masculine rats fasted for 48 hours and dehydrated for 24 hours. One hour later, the rats were put down in similar manners as mentioned above test to remove and treat the stomach. The compounds under test, suspended in 0.5% CMC, were orally administered to the rats at a dose of 5 ml/kg body weight (corresponding to 30 mg/kg body weight of that compound) one hour prior to the administration of ethanol.

With `CCCCOC(=O)C[S+]([O-])c1nc2cccnc2s1` (stereo not shown) [Example 79, 2-[(n-butoxycarbonylmethyl)sulfinyl]thiazolo[5,4-b]pyridine] the depression of erosion was 98%.

Same assay, conditions: Table 2; 30 mg/kg oral, in 0.5% CMC, one hour prior to 100% ethanol; rats

Going from `[O-][S+](CCN1CCOCC1)c1nc2cccnc2s1` (stereo not shown) [Example 138] to `CCOC(=O)C[S+]([O-])c1nc2cccnc2s1` (stereo not shown) [Example 128, 2-[(ethoxycarbonylmethyl)sulfinyl]thiazolo[5,4-b]pyridine], the “% Ulceration Inhibition” value rises from 97% to 99%.

Compared with `CC(C)N(CC[S+]([O-])c1nc2cccnc2s1)C(C)C` (stereo not shown) [Example 149, 2-[(2-di-isopropylaminoethvl)sulfinyl]thiazolo[5,4-b]pyridine], `CCCCOC(=O)C[S+]([O-])c1nc2cccnc2s1` (stereo not shown) [Example 79, 2-[(n-butoxycarbonylmethyl)sulfinyl]thiazolo[5,4-b]pyridine] is higher in “% Ulceration Inhibition” value: 94% for the first, 98% for the second.
